{"source": "ChEMBL document CHEMBL1127553", "about": "“Derivatives of a novel cyclopeptolide. 2. Synthesis, activity against multidrug resistance in CHO and KB cells in vitro, and structure-activity relationships” (1994)", "key": {"CHO [1]": {"system": "CHO", "assay": "The sensitizing capacity for colchicine treatment of multi drug resistance (MDR) CHO cell at concentration 1.0(mg/L).", "type": "functional, Cricetulus griseus"}, "CHO [2]": {"system": "CHO", "assay": "The sensitizing capacity for colchicine treatment of multi drug resistance(MDR) in CHO cell at concentration 0.1(mg/L).", "type": "functional, Cricetulus griseus"}, "CHO [3]": {"system": "CHO", "assay": "Sensitization of colchicine treated parental (PAR)CHO cells, measured at concentration 0.1(mg/L)", "type": "functional, Cricetulus griseus"}, "CHO [4]": {"system": "CHO", "assay": "The sensitizing capacity for colchicine treatment of parental (PAR)CHO cells at concentration 1.0 (mg/L)", "type": "functional, Cricetulus griseus"}, "KB [5]": {"system": "KB", "assay": "The sensitizing capacity of compound for colchicine treatment of multi drug resistance in KB cell was measured at concentration 1.0(mg/L)", "type": "functional, Homo sapiens"}, "KB [6]": {"system": "KB", "assay": "The sensitizing capacity of compound for colchicine treatment of multi drug resistance in KB cell was measured at concentration 3.0 (mg/L)", "type": "functional, Homo sapiens"}, "CHO [7]": {"system": "CHO", "assay": "The sensitizing capacity of compound for colchicine treatment of parental (PAR)CHO cells was measured at concentration 0.1 (mg/L)", "type": "functional, Cricetulus griseus"}, "KB (human)": {"system": "KB (human)", "assay": "The sensitizing capacity of compound for colchicine treatment of multi drug resistance in KB cell was measured at concentration 1.0(mg/L)"}, "KB [8]": {"system": "KB", "assay": "The sensitizing capacity of compound for colchicine treatment of multi drug resistance in KB cell was measured at concentration 3.0(mg/L)"}}, "note": "Non-standard residues stand in square brackets, D forms with d. Residues, ends and D or L forms follow the SMILES beside them. *: point of attachment. NMeI = CC[C@H](C)[C@H](NC)C(=O)O; NMeD = CN[C@@H](CC(=O)O)C(=O)O; NMeV = CN[C@H](C(=O)O)C(C)C; Pip = O=C(O)[C@@H]1CCCCN1; dLac = C[C@@H](O)C(=O)O; Lac = C[C@H](O)C(=O)O; OtBu = CC(C)(C)O*", "data": [{"smiles": "CC[C@@H](C)[C@H]1C(=O)NCC(=O)N(C)[C@@H](C(C)C)C(=O)N[C@@H](Cc2ccc(OC)cc2)C(=O)O[C@@H](C)C(=O)N2CCCC[C@H]2C(=O)N(C)[C@@H](C(C)C)C(=O)N[C@@H](C(C)C)C(=O)N(C)[C@H](CC(=O)NCCC(C)C)C(=O)N(C)[C@@H]([C@@H](C)CC)C(=O)N1C", "values": [{"measurement": "Activity", "setting": "CHO [1]", "value": 273}, {"measurement": "Activity", "setting": "CHO [2]", "value": 83}, {"measurement": "Activity", "setting": "CHO [3]", "value": 7.7}, {"measurement": "Activity", "setting": "CHO [4]", "value": 8.6}, {"measurement": "Activity", "setting": "KB [5]", "value": 1.5}, {"measurement": "Activity", "setting": "KB [6]", "value": 54}]}, {"smiles": "CC[C@@H](C)[C@H]1C(=O)NCC(=O)N(C)[C@@H](C(C)C)C(=O)N[C@@H](Cc2ccc(OC)cc2)C(=O)O[C@H](C)C(=O)N2CCCC[C@H]2C(=O)N(C)[C@@H](C(C)C)C(=O)N[C@@H](C(C)C)C(=O)N(C)[C@H](CC(=O)O)C(=O)N(C)[C@@H]([C@@H](C)CC)C(=O)N1C", "values": [{"measurement": "Activity", "setting": "CHO [1]", "value": 1.8}, {"measurement": "Activity", "setting": "CHO [2]", "value": 1.1}, {"measurement": "Activity", "setting": "CHO [7]", "value": 2.2}, {"measurement": "Activity", "setting": "CHO [4]", "value": 7.6}]}, {"smiles": "CC[C@H](C)[C@H]1C(=O)NCC(=O)N(C)[C@@H](C(C)C)C(=O)N[C@@H](Cc2ccc(OC)cc2)C(=O)O[C@@H](C)C(=O)N2CCCC[C@H]2C(=O)N(C)[C@@H](C(C)C)C(=O)N[C@@H](C(C)C)C(=O)N(C)[C@@H](CC(=O)NC[Si](C)(C)C)C(=O)N(C)[C@@H]([C@@H](C)CC)C(=O)N1C", "values": [{"measurement": "Activity", "setting": "CHO [1]", "value": 336}, {"measurement": "Activity", "setting": "CHO [2]", "value": 81}, {"measurement": "Activity", "setting": "CHO [3]", "value": 7.4}, {"measurement": "Activity", "setting": "CHO [4]", "value": 11}, {"measurement": "Activity", "setting": "KB [5]", "value": 1.3}, {"measurement": "Activity", "setting": "KB [6]", "value": 123}]}, {"smiles": "CC[C@@H](C)[C@H]1C(=O)NCC(=O)N(C)[C@@H](C(C)C)C(=O)N[C@@H](Cc2ccc(OC)cc2)C(=O)O[C@H](C)C(=O)N2CCCC[C@H]2C(=O)N(C)[C@@H](C(C)C)C(=O)N[C@@H](C(C)C)C(=O)N(C)[C@H](CC(=O)NC23CC4CC(CC(C4)C2)C3)C(=O)N(C)[C@@H]([C@@H](C)CC)C(=O)N1C", "values": [{"measurement": "Activity", "setting": "CHO [1]", "value": 177}, {"measurement": "Activity", "setting": "CHO [2]", "value": 25}, {"measurement": "Activity", "setting": "CHO [3]", "value": 7.3}, {"measurement": "Activity", "setting": "CHO [4]", "value": 8.9}, {"measurement": "Activity", "setting": "KB [6]", "value": 3.7}, {"measurement": "Activity", "setting": "KB (human)", "value": 1.1}]}, {"smiles": "CC[C@H](C)[C@H]1C(=O)NCC(=O)N(C)[C@@H](C(C)C)C(=O)N[C@@H](Cc2ccc(OC)cc2)C(=O)O[C@@H](C)C(=O)N2CCCC[C@H]2C(=O)N(C)[C@@H](C(C)C)C(=O)N[C@@H](C(C)C)C(=O)N(C)[C@@H](CC(=O)OC(C)(C)C)C(=O)N(C)[C@@H]([C@@H](C)CC)C(=O)N1C", "note": "(cyclo(G[NMeV]Y(Me)[Lac][Pip][NMeV]V[NMeD](OtBu)[NMeI][NMeI]))", "values": [{"measurement": "Activity", "setting": "CHO [1]", "value": 333}, {"measurement": "Activity", "setting": "CHO [2]", "value": 66}, {"measurement": "Activity", "setting": "CHO [3]", "value": 5.4}, {"measurement": "Activity", "setting": "CHO [4]", "value": 7}, {"measurement": "Activity", "setting": "KB [5]", "value": 3.6}, {"measurement": "Activity", "setting": "KB [6]", "value": 196}]}, {"smiles": "CC[C@H](C)[C@H]1C(=O)NCC(=O)N(C)[C@@H](C(C)C)C(=O)N[C@@H](Cc2ccc(OC)cc2)C(=O)O[C@H](C)C(=O)N2CCCC[C@H]2C(=O)N(C)[C@@H](C(C)C)C(=O)N[C@@H](C(C)C)C(=O)N(C)[C@@H](CC(=O)OC(C)(C)C)C(=O)N(C)[C@@H]([C@@H](C)CC)C(=O)N1C", "note": "(cyclo(G[NMeV]Y(Me)[dLac][Pip][NMeV]V[NMeD](OtBu)[NMeI][NMeI]))", "values": [{"measurement": "Activity", "setting": "CHO [1]", "value": 135}, {"measurement": "Activity", "setting": "CHO [2]", "value": 3.8}, {"measurement": "Activity", "setting": "CHO [3]", "value": 4.6}, {"measurement": "Activity", "setting": "CHO [4]", "value": 8.6}, {"measurement": "Activity", "setting": "KB [5]", "value": 1.1}, {"measurement": "Chemosensitizing activity", "setting": "KB [8]", "value": 1.8}]}]}
